Broadly, the Ki is a dissociation constant, usually derived from enzyme kinetics or from competition with a known ligand.

Each structure is given as a SMILES string.

Assay [1] deals with T1, human DAT (Homo sapiens, UniProt Q01959).
T1 construct: purchased Perkin Elmer; host or cells: CHO cells transfected with human DAT (membrane preparation)
Description: [3H]-WIN 35,428 competition binding, CHO membranes transfected with human DAT. Here is the method:
At the end of the incubation time, bound and free radioactivity were separated by filtering the assay mixture through Whatman GF/B glass fiber filters in a Brandel cell harvester (Brandel, Unterföhring, Germany).

Assay [2] has as its target T2, mouse DAT (Mus musculus, UniProt Q61327).
T2 construct: DAT expressed in mouse striatal nerve terminals; from tissue; host or cells: mouse striatum, crude synaptosomal (P2) fraction
Put plainly: [3H]-WIN 35,428 competition binding, mouse striatal synaptosomes. Here is the method:
Competition binding experiments were carried out incubating 8 nM [^3H]-WIN 35,428 (specific activity 84 Ci/mmol; Perkin Elmer, Boston, MA, USA) with CHO membranes transfected with human DAT (Perkin Elmer) or mouse striatal synaptosomes with different concentration of the examined compounds for 120 min at 4°C. Non-specific binding was determined in the presence of 1 µM GBR 12783. At the end of the incubation time, bound and free radioactivity were separated by filtering the assay mixture through Whatman GF/B glass fiber filters in a Brandel cell harvester (Brandel, Unterföhring, Germany). Filter bound radioactivity was counted in a Perkin Elmer 2810TR scintillation counter (Perkin Elmer).
On the day of the experiment, the animal was euthanized, the brain was rapidly removed, and both striata isolated. Thereafter, a crude synaptosomal (P2) fraction was prepared as follows: the striata were suspended in ice-cold buffered sucrose solution (0.32 M, pH 7.4) and homogenized. The homogenate was centrifuged (10 min, 2,100 g, 4°C) to remove nuclei and debris. The supernatant was further centrifuged at 13,500 g for 20 min at 4°C. For [^3H]-WIN 35,428 binding experiments, the P2 pellet was resuspended in 50 mM Tris–HCl, 100 mM NaCl, pH 7.4. For [^3H]-DA release experiments, the P2 pellet was then resuspended in 5 ml of Kreb’s solution (mM: NaCl 118; KCl 4.4; CaCl2 1.2; MgSO4 1.2; KH2PO4 1.2; NaHCO3 25; glucose 10), gassed 20 min with a mixture of 95% O2 plus 5% CO2 containing [^3H]-DA (50 nM; Perkin Elmer, Monza, Italy), disodium EDTA (0.03 mM), and ascorbic acid (0.05 mM; to prevent [^3H]-DA degradation).

T1 sequence (Q01959 whole entry): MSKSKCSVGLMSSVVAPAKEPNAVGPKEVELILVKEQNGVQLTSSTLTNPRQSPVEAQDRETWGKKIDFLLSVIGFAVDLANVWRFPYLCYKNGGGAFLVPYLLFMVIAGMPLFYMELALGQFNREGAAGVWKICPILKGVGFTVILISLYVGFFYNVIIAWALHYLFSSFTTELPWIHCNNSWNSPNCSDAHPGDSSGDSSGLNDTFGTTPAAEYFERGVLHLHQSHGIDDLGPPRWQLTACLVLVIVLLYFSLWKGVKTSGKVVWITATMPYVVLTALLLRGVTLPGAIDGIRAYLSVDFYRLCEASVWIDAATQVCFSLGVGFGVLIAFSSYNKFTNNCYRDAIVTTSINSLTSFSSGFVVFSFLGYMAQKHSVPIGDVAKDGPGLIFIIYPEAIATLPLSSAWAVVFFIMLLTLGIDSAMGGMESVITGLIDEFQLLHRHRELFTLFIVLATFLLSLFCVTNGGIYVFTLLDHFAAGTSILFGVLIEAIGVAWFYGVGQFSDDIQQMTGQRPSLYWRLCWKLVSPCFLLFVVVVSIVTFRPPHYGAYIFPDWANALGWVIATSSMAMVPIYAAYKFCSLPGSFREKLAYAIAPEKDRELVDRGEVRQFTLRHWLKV
T2 sequence (Q61327 whole entry): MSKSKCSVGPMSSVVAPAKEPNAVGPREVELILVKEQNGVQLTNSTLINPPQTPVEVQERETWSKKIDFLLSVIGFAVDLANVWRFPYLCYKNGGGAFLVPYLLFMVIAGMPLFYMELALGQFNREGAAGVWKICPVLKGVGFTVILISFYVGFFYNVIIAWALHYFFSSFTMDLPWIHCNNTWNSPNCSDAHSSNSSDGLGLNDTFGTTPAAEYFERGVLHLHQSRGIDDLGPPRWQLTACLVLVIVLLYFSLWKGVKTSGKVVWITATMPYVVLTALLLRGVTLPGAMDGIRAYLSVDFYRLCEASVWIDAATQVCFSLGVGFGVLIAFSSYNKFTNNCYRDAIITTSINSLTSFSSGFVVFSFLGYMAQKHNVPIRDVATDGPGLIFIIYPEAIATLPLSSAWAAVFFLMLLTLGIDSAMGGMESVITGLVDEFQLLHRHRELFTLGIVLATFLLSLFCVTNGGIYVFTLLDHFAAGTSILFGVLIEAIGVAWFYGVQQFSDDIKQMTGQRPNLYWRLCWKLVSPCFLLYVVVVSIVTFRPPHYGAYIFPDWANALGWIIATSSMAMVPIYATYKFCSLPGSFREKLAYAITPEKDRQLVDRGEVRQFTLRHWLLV

On to `CCCCCn1cc(C(=O)c2cccc3ccccc23)c2ccccc21` [JWH-018, 1-pentyl-3-(1-naphthoyl)indole], for which the inhibition constant Ki in assay [1] was 7.18 µM; in assay [2], > 10 µM.

Values taken from publication PMC5543288, “Psychostimulant Effect of the Synthetic Cannabinoid JWH-018 and AKB48: Behavioral, Neurochemical, and Dopamine Transporter Scan Imaging Studies in Mice” (Frontiers in Psychiatry, 2017).
